Data: ChEMBL document CHEMBL4680224, “Discovery of pyridine tetrahydroisoquinoline thiohydantoin derivatives with low blood-brain barrier penetration as the androgen receptor antagonists” (Eur J Med Chem, 2020)

Assays:
[1] = test system: DU-145; assay: Antiproliferative activity against human DU-145 cells assessed as reduction in cel viability after 72 hrs by MTT assay; type: functional, cell-based; settings: DU-145, 72 h
[2] = test system: LNCaP; assay: Antiproliferative activity against human LNCaP cells assessed as reduction in cel viability after 72 hrs by MTT assay; type: functional, cell-based
[3] = Stability in human liver microsomes assessed as parent compound remaining at 10 uM; type: ADME, Microsome; settings: read-out: Stabilty
[4] = test system: LNCaP; assay: Antitumour activity against human LNCaP cells xenografted in BALB/c nude mouse assessed as decrease in PSA level at 45 mg/kg, po administered daily for 21 days by ELISA relative to control; type: functional; design: scale not given: the % may be the effect or the level left; settings: time 21 day
[5] = Half life in human liver microsomes at 10 uM; type: ADME, Microsome
[6] = Antagonist activity at GABAA receptor (unknown origin) by radioligand binding assay
[7] = test system: LNCaP; assay: Antitumour activity against human LNCaP cells xenografted in BALB/c nude mouse assessed as reduction in tumour weight at 45 mg/kg, po administered daily for 21 days relative to control; type: functional; settings: time 21 day

Row | Compound | IC50 [1] | IC50 [2] | other results
1 | CCCCS(=O)(=O)Nc1cc2c(cc1F)CC1C(=O)N(c3cnc(C#N)c(C(F)(F)F)c3)C(=S)N1C2 (stereo unspecified) | > 100 µM | 102 µM | –
2 | CCC(=O)Nc1ccc2c(c1)CCC1C(=O)N(c3cnc(C#N)c(C(F)(F)F)c3)C(=S)N21 (stereo unspecified) | > 100 µM | 39.9 µM | –
3 | COc1c(Br)cc2c(c1Br)CN1C(=S)N(c3cnc(C#N)c(C(F)(F)F)c3)C(=O)C1C2 (stereo unspecified) | 96.3 µM | 85.9 µM | –
4 | CCC(=O)Nc1ccc2c(c1)N1C(=S)N(c3cnc(C#N)c(C(F)(F)F)c3)C(=O)C1CC2 (stereo unspecified) | > 100 µM | 48.8 µM | –
5 | CCCCS(=O)(=O)Nc1ccc2c(c1)N1C(=S)N(c3cnc(C#N)c(C(F)(F)F)c3)C(=O)C1CC2 (stereo unspecified) | 83.9 µM | 48.7 µM | –
6 | CCOC(=O)Nc1ccc2c(c1)CCC1C(=O)N(c3cnc(C#N)c(C(F)(F)F)c3)C(=S)N21 (stereo unspecified) | > 100 µM | 23.7 µM | –
7 | CCOC(=O)CCCOc1ccc2c(c1)CN1C(=S)N(c3cnc(C#N)c(C(F)(F)F)c3)C(=O)C1C2 (stereo unspecified) | > 100 µM | 17 µM | –
8 | CCOC(=O)Nc1ccc2c(c1)CN1C(=S)N(c3cnc(C#N)c(C(F)(F)F)c3)C(=O)C1C2 (stereo unspecified) | > 100 µM | 12.2 µM | –
9 | CCCNC(=O)c1cc2c(cc1F)CC1C(=O)N(c3cnc(C#N)c(C(F)(F)F)c3)C(=S)N1C2 (stereo unspecified) | 92.5 µM | 20.1 µM | –
10 | CCC(=O)Nc1ccc2c(c1)CN1C(=S)N(c3cnc(C#N)c(C(F)(F)F)c3)C(=O)C1C2 (stereo unspecified) | 81.1 µM | 22.9 µM | –
11 | CCNC(=O)c1ccc2c(c1)CN1C(=S)N(c3cnc(C#N)c(C(F)(F)F)c3)C(=O)C1C2 (stereo unspecified) | 53.2 µM | 29.3 µM | –
12 | CCCC(=O)Nc1ccc2c(c1)N1C(=S)N(c3cnc(C#N)c(C(F)(F)F)c3)C(=O)C1CC2 (stereo unspecified) | 97.8 µM | 46 µM | –
13 | CCCCS(=O)(=O)Nc1ccc2c(c1)CCC1C(=O)N(c3cnc(C#N)c(C(F)(F)F)c3)C(=S)N21 (stereo unspecified) | 90.1 µM | 54.7 µM | –
14 | CCC(=O)Nc1cc2c(cc1F)CC1C(=O)N(c3cnc(C#N)c(C(F)(F)F)c3)C(=S)N1C2 (stereo unspecified) | > 100 µM | 27.7 µM | –
15 | CC(=O)Nc1cc2c(cc1F)CC1C(=O)N(c3cnc(C#N)c(C(F)(F)F)c3)C(=S)N1C2 (stereo unspecified) | > 100 µM | 28.3 µM | –
16 | COC(=O)c1ccc2c(c1)CN1C(=S)N(c3cnc(C#N)c(C(F)(F)F)c3)C(=O)C1C2 (stereo unspecified) | 75.5 µM | 58.4 µM | –
17 | CCCNC(=O)c1ccc2c(c1)CN1C(=S)N(c3cnc(C#N)c(C(F)(F)F)c3)C(=O)C1C2 (stereo unspecified) | 90.4 µM | 18.1 µM | –
18 | CS(=O)(=O)Nc1ccc2c(c1)CN1C(=S)N(c3cnc(C#N)c(C(F)(F)F)c3)C(=O)C1C2 (stereo unspecified) | > 100 µM | 90.2 µM | –
19 | CC(=O)Nc1ccc2c(c1)CCC1C(=O)N(c3cnc(C#N)c(C(F)(F)F)c3)C(=S)N21 (stereo unspecified) | > 100 µM | 41.2 µM | –
20 | COC(=O)c1cc2c(cc1F)CC1C(=O)N(c3cnc(C#N)c(C(F)(F)F)c3)C(=S)N1C2 (stereo unspecified) | 86.2 µM | 55.5 µM | –
21 | CCCCOc1ccc2c(c1)CN1C(=S)N(c3cnc(C#N)c(C(F)(F)F)c3)C(=O)C1C2 (stereo unspecified) | > 100 µM | 20 µM | –
22 | CC(=O)Nc1ccc2c(c1)CN1C(=S)N(c3cnc(C#N)c(C(F)(F)F)c3)C(=O)C1C2 (stereo unspecified) | 54.1 µM | 23.1 µM | –
23 | N#Cc1ncc(N2C(=O)C3Cc4ccc(C(=O)O)cc4CN3C2=S)cc1C(F)(F)F (stereo unspecified) | > 100 µM | > 100 µM | –
24 | COc1ccc2c(c1)CN1C(=S)N(c3cnc(C#N)c(C(F)(F)F)c3)C(=O)C1C2 (stereo unspecified) | > 100 µM | 25.9 µM | –
25 | N#Cc1ncc(N2C(=O)C3Cc4ccccc4CN3C2=S)cc1C(F)(F)F (stereo unspecified) | > 100 µM | 21.6 µM | –
26 | CC(CO)NC(=O)c1cc2c(cc1F)CC1C(=O)N(c3cnc(C#N)c(C(F)(F)F)c3)C(=S)N1C2 (stereo unspecified) | 71.3 µM | 34.2 µM | –
27 | CNC(=O)c1ccc2c(c1)CN1C(=S)N(c3cnc(C#N)c(C(F)(F)F)c3)C(=O)C1C2 (stereo unspecified) | 83.6 µM | 36.7 µM | –

Row | Compound | IC50 [1] | IC50 [2] | other results
28 | CCNC(=O)c1cc2c(cc1F)CC1C(=O)N(c3cnc(C#N)c(C(F)(F)F)c3)C(=S)N1C2 (stereo unspecified) | 91.4 µM | 32.3 µM | –
29 | N#Cc1ncc(N2C(=O)C3Cc4ccc(C(=O)NCCO)cc4CN3C2=S)cc1C(F)(F)F (stereo unspecified) | 83.9 µM | 29.1 µM | –
30 | CCCCNC(=O)c1cc2c(cc1F)CC1C(=O)N(c3cnc(C#N)c(C(F)(F)F)c3)C(=S)N1C2 (stereo unspecified) | 93.8 µM | 16.3 µM | –
31 | CS(=O)(=O)Nc1ccc2c(c1)CCC1C(=O)N(c3cnc(C#N)c(C(F)(F)F)c3)C(=S)N21 (stereo unspecified) | > 100 µM | > 100 µM | –
32 | N#Cc1ncc(N2C(=O)C3Cc4ccc(N)cc4CN3C2=S)cc1C(F)(F)F (stereo unspecified) | > 100 µM | 44.7 µM | –
33 | CCOC(=O)Nc1ccc2c(c1)N1C(=S)N(c3cnc(C#N)c(C(F)(F)F)c3)C(=O)C1CC2 (stereo unspecified) | 90.3 µM | 35.7 µM | –
34 | CNC(=O)c1cc2c(cc1F)CC1C(=O)N(c3cnc(C#N)c(C(F)(F)F)c3)C(=S)N1C2 (stereo unspecified) | 67.4 µM | 43.8 µM | –
35 | CS(=O)(=O)Nc1cc2c(cc1F)CC1C(=O)N(c3cnc(C#N)c(C(F)(F)F)c3)C(=S)N1C2 (stereo unspecified) | > 100 µM | 79 µM | –
36 | CS(=O)(=O)Nc1ccc2c(c1)N1C(=S)N(c3cnc(C#N)c(C(F)(F)F)c3)C(=O)C1CC2 (stereo unspecified) | > 100 µM | > 100 µM | –
37 | N#Cc1ncc(N2C(=O)C3Cc4cc(F)c(C(=O)O)cc4CN3C2=S)cc1C(F)(F)F (stereo unspecified) | > 100 µM | > 100 µM | –
38 | CCOc1ccc2c(c1)CN1C(=S)N(c3cnc(C#N)c(C(F)(F)F)c3)C(=O)C1C2 (stereo unspecified) | 91.7 µM | 65.9 µM | –
39 | N#Cc1ncc(N2C(=O)C3Cc4cc(F)c([N+](=O)[O-])cc4CN3C2=S)cc1C(F)(F)F (stereo unspecified) | 83.4 µM | 29 µM | –
40 | CCCC(=O)Nc1cc2c(cc1F)CC1C(=O)N(c3cnc(C#N)c(C(F)(F)F)c3)C(=S)N1C2 (stereo unspecified) | > 100 µM | 27.9 µM | –
41 | N#Cc1ncc(N2C(=O)C3Cc4cc(Br)c(O)c(Br)c4CN3C2=S)cc1C(F)(F)F (stereo unspecified) | 81.1 µM | 60.4 µM | –
42 | CC(O)CNC(=O)c1cc2c(cc1F)CC1C(=O)N(c3cnc(C#N)c(C(F)(F)F)c3)C(=S)N1C2 (stereo unspecified) | 72.2 µM | 47.5 µM | –
43 | N#Cc1ncc(N2C(=O)C3Cc4ccc([N+](=O)[O-])cc4CN3C2=S)cc1C(F)(F)F (stereo unspecified) | > 100 µM | 75.7 µM | –
44 | CCCCS(=O)(=O)Nc1ccc2c(c1)CN1C(=S)N(c3cnc(C#N)c(C(F)(F)F)c3)C(=O)C1C2 (stereo unspecified) | 84.4 µM | 84.1 µM | –
45 | N#Cc1ncc(N2C(=O)C3Cc4ccc(C(=O)NC5CCCCC5)cc4CN3C2=S)cc1C(F)(F)F (stereo unspecified) | 92.4 µM | 72.3 µM | –
46 | CCCCNC(=O)c1ccc2c(c1)CN1C(=S)N(c3cnc(C#N)c(C(F)(F)F)c3)C(=O)C1C2 (stereo unspecified) | 89.4 µM | 11.6 µM | –
47 | CC(CO)NC(=O)c1ccc2c(c1)CN1C(=S)N(c3cnc(C#N)c(C(F)(F)F)c3)C(=O)C1C2 (stereo unspecified) | 88 µM | 44.9 µM | –
48 | N#Cc1ncc(N2C(=O)C3Cc4cc(F)c(C(=O)NC5CCCCC5)cc4CN3C2=S)cc1C(F)(F)F (stereo unspecified) | 67.6 µM | 84.7 µM | –
49 | N#Cc1ncc(N2C(=O)C3Cc4cc(F)c(N)cc4CN3C2=S)cc1C(F)(F)F (stereo unspecified) | > 100 µM | 32.1 µM | –
50 | CCCC(=O)Nc1ccc2c(c1)CN1C(=S)N(c3cnc(C#N)c(C(F)(F)F)c3)C(=O)C1C2 (stereo unspecified) | > 100 µM | 34.2 µM | –
51 | CC(=O)Nc1ccc2c(c1)N1C(=S)N(c3cnc(C#N)c(C(F)(F)F)c3)C(=O)C1CC2 (stereo unspecified) | > 100 µM | 89.7 µM | –
52 | CNC(=O)c1ccc(N2C(=S)N(c3ccc(C#N)c(C(F)(F)F)c3)C(=O)C2(C)C)cc1F [ENZALUTAMIDE] | 49.3 µM | 16.5 µM | remaining at 10 µM [3]: 90.3%; Activity [4]: 57%; half-life at 10 µM [5]: 6.69 h; IC50 [6]: 2.7 µM; TGI [7]: 68%
53 | CCCC(=O)Nc1ccc2c(c1)CCC1C(=O)N(c3cnc(C#N)c(C(F)(F)F)c3)C(=S)N21 (stereo unspecified) | 89.7 µM | 32.5 µM | –
